This experiment addresses PARP-1 (Homo sapiens (Human), UniProt P09874). As to the kind of experiment: PARP-1 Enzyme Assay (HT Universal Colorimetric PARP Assay Kit). Format: biochemical. The conditions noted are these: OD450, read-out: IC50 (PARP-1 inhibition). The protocol: Inhibition of PARP-1 enzymatic activities was measured using an HT Universal Colorimetric PARP Assay Kit (Trevigen, catalogue #4677-096-K) following the standard procedures.
Serial dilutions of PARP compounds were added to appropriate wells. The compound was incubated with PARP enzyme at RT for 10 min, and the reaction was initiated by addition of the PARP substrate cocktail, Each concentration of compound was tested in triplicate wells. After 15 min reaction, the reaction was stopped, and the Strep-HRP was added into each well and incubated for 1 h at RT. After addition of TACS-Sapphire™ colorimetric substrate and incubated in dark for 15 min, the OD450 was read out with an EnVision instrument. IC50 values (the concentration at which 50% of the enzyme activity is inhibited) were calculated, which are determined over a range of different concentrations, normally from 10 μM to 0.1 nM.

Sequence of PARP-1 (P09874 whole entry): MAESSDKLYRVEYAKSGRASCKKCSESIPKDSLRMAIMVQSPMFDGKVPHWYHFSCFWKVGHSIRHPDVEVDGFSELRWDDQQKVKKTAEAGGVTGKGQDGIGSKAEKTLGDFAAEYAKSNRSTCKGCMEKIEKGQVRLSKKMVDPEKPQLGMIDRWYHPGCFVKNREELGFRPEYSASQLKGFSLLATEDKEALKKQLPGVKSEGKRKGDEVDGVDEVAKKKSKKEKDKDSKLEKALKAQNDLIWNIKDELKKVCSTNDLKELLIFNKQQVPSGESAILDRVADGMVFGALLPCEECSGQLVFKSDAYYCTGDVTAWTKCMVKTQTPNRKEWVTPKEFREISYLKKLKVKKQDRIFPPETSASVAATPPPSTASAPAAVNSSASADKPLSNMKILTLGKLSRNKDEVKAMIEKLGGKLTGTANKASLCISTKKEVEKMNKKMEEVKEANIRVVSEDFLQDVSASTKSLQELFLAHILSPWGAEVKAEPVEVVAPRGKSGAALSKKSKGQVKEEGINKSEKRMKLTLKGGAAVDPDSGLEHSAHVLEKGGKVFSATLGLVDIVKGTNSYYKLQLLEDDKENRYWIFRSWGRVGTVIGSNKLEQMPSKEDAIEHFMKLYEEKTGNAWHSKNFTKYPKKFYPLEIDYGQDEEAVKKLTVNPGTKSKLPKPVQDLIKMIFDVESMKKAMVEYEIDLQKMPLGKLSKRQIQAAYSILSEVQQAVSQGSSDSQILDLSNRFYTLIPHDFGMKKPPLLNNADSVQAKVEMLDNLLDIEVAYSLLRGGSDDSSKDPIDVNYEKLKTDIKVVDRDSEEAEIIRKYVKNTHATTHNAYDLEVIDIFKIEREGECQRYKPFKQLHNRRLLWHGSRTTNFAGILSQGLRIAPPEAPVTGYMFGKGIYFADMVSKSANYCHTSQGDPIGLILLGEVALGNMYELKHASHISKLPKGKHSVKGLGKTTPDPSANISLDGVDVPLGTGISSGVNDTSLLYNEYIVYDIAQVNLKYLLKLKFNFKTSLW

With “4-(3-(1-(3,3-difluoropyrrolidine-1-carbonyl)-4-oxido-1,4-azaphosphinan-4-yl)-4-fluorobenzyl)phthalazin-1(2H)-one [Example 6]”, the IC50 is below 100 nM.

As to “4-(3-(1-(3,3-dimethylbutanoyl)-4-oxido-1,4-azaphosphinan-4-yl)-4-fluorobenzyl)phthalazin-1(2H)-one [Example 5]”, the IC50 was below 100 nM.

As to “4-(3-(1-(3-chloro-5-(trifluoromethyl)pyridin-2-yl)-4-oxido-1,4-azapbosphinan-4-yl)-4-fluorobenzyl)phthalazin-1(2H)-one [Example 20]”, the IC50 lay within 100 to 1000 nM. The figure for “4-(3-(1-(cyclobutanecarbonyl)-4-oxido-1,4-azaphosphinan-4-yl)-4-fluorobenzyl)phthalazin-1(2H)-one [Example 4]” is below 100 nM. The figure for “4-(3-(1-(cyclopropanecarbonyl)-4-oxido-1,4-azaphosphinan-4-yl)-4-fluorobenzyl)phthalazin-1(2H)-one [Example 3]” is below 100 nM. The figure for “4-(4-fluoro-3-(4-oxido-1-(tetrahydrofuran-2-carbonyl)-1,4-azaphosphinan-4-yl)benzyl)phthalazin-1(2H)-one [Example 7]” is 100 to 1000 nM; for “4-(4-fluoro-3-(4-oxido-1-pivaloyl-1,4-azaphosphinan-4-yl)benzyl)phthalazin-1(2H)-one [Example 8]” it is below 100 nM. On to `O=c1[nH]nc(C(O)c2ccc(F)c(P3(=O)CCN(C4CC4)CC3)c2)c2ccccc12` (racemic) [Example 58, (±)-4-[(3-(1-cyclopropyl-4-oxido-1,4-azaphosphinan-4-yl)-4-fluoro-1-phenyl)(hydroxymethyl)]phthalazin-1(2H)-one], for which the IC50 was below 100 nM. On to `O=c1[nH]nc(Cc2ccc(F)c(P3(=O)CCN(Cc4ccccc4)CC3)c2)c2ccccc12` [Example 1, 4-(3-(1-benzyl-4-oxido-1,4-azaphosphinan-4-yl)-4-fluorobenzyl)phthalazin-1(2H)-one], for which the IC50 is below 100 nM.

Take `O=C(C1CCCC1)N1CCP(=O)(c2cc(Cc3n[nH]c(=O)c4ccccc34)ccc2F)CC1` [Example 2, 4-(3-(1-(cyclopentanecarbonyl)-4-oxido-1,4-azaphosphinan-4-yl)-4-fluorobenzyl)phthalazin-1 (2H)-one]: the IC50 fell in the range of 1000 to 10000 nM. The figure for `CN(C)C(=O)N1CCP(=O)(c2cc(Cc3n[nH]c(=O)c4ccccc34)ccc2F)CC1` [Example 9, 4-(2-fluoro-5-((4-oxo-3,4-dihydrophthalazin-1-yl)methyl)phenyl)-N,N-dimethyl-1,4-azaphosphinane-1-carboxamide 4-oxide] is 100 to 1000 nM; for `O=C(N1CCCC1)N1CCP(=O)(c2cc(Cc3n[nH]c(=O)c4ccccc34)ccc2F)CC1` [Example 10] it is 100 to 1000 nM; for `O=c1[nH]nc(Cc2ccc(F)c(P3(=O)CCN(c4ccc(Cl)nn4)CC3)c2)c2ccccc12` [Example 13, 4-(3-(1-(6-chloropyridazin-3-yl)-4-oxido-1,4-azaphosphinan-4-yl)-4-fluorobenzyl)phthalazin-1(2H)-one] it is below 100 nM. Next, `N#Cc1ccc(N2CCP(=O)(c3cc(Cc4n[nH]c(=O)c5ccccc45)ccc3F)CC2)nc1` [Example 14, 6-(4-(2-fluoro-5-((4-oxo-3,4-dihydrophthalazin-1-yl)methyl)phenyl)-4-oxido-1,4-azaphosphinan-1-yl)nicotinonitrile]: below 100 nM. For `N#Cc1ccc(N2CCP(=O)(c3cc(Cc4n[nH]c(=O)c5ccccc45)ccc3F)CC2)cc1` [Example 15, 4-(4-(2-fluoro-5-((4-oxo-3,4-dihydrophthalazin-1-yl)methyl)phenyl)-4-oxido-1,4-azaphosphinan-1-yl)benzonitrile], the IC50 lay within 1000 to 10000 nM.

Consider `N#Cc1cccnc1N1CCP(=O)(c2cc(Cc3n[nH]c(=O)c4ccccc34)ccc2F)CC1` [Example 16, 2-(4-(2-fluoro-5-((4-oxo-3,4-dihydrophthalazin-1-yl)methyl)phenyl)-4-oxido-1,4-azaphosphinan-1-yl)nicotinonitrile], for which the IC50 was below 100 nM. The figure for `O=c1[nH]nc(Cc2ccc(F)c(P3(=O)CCN(c4ccnc(Cl)n4)CC3)c2)c2ccccc12` [Example 17, 4-(3-(1-(2-chloropyrimidin-4-yl)-4-oxido-1,4-azaphosphinan-4-yl)-4-fluorobenzyl)phthalazin-1(2H)-one] is below 100 nM; for `O=c1[nH]nc(Cc2ccc(F)c(P3(=O)CCN(c4nccc(Cl)n4)CC3)c2)c2ccccc12` [Example 18, 4-(3-(1-(4-chloropyrimidin-2-yl)-4-oxido-1,4-azaphosphinan-4-yl)-4-fluorobenzyl)phthalazin-1(2H)-one] it is below 100 nM; for `O=c1[nH]nc(Cc2ccc(F)c(P3(=O)CCN(c4ccccn4)CC3)c2)c2ccccc12` [Example 19, 4-(4-fluoro-3-(4-oxido-1-(pyridin-2-yl)-1,4-azaphosphinan-4-yl)benzyl)phthalazin-1(2H)-one] it is below 100 nM.

For the molecule `O=c1[nH]nc(Cc2ccc(F)c(P3(=O)CCN(c4ncnc5ccccc45)CC3)c2)c2ccccc12` [Example 21, 4-(4-fluoro-3-(4-oxido-1-(quinazolin-4-yl)-1,4-azaphosphinan-4-yl)benzyl)phthalazin-1(2H)-one], the IC50 is below 100 nM. The figure for `O=c1[nH]nc(Cc2ccc(F)c(P3(=O)CCN(c4cc(Cl)ncn4)CC3)c2)c2ccccc12` [Example 22, 4-(3-(1-(6-chloropyrimidin-4-yl)-4-oxido-1,4-azaphosphinan-4-yl)-4-fluorobenzyl)phthalazin-1(2H)-one] is below 100 nM; for `O=c1[nH]nc(Cc2ccc(F)c(P3(=O)CCN(c4ncccc4F)CC3)c2)c2ccccc12` [Example 23, 4-(4-fluoro-3-(1-(3-fluoropyridin-2-yl)-4-oxido-1,4-azaphosphinan-4-yl)benzyl)phthalazin-1(2H)-one] it is below 100 nM. Next, `O=c1[nH]nc(Cc2ccc(F)c(P3(=O)CCN(c4ccc(C(F)(F)F)cn4)CC3)c2)c2ccccc12` [Example 24, 4-(4-fluoro-3-(4-oxido-1-(5-(trifluoromethyl)pyridin-2-yl)-1,4-azaphosphinan-4-yl)benzyl)phthalazin-1(2H)-one]: below 100 nM. Next, `O=c1[nH]nc(Cc2ccc(F)c(P3(=O)CCN(c4cccc(F)n4)CC3)c2)c2ccccc12` [Example 25, 4-(4-fluoro-3-(1-(6-fluoropyridin-2-yl)-4-oxido-1,4-azaphosphinan-4-yl)benzyl)phthalazin-1(2H)-one]: below 100 nM; `O=c1[nH]nc(Cc2ccc(F)c(P3(=O)CCN(c4cc(C(F)(F)F)ccn4)CC3)c2)c2ccccc12` [Example 26, 4-(4-fluoro-3-(4-oxido-1-(4-(trifluoromethyl)pyridin-2-yl)-1,4-azaphosphinan-4-yl)benzyl)phthalazin-1(2H)-one]: below 100 nM; `O=c1[nH]nc(Cc2ccc(F)c(P3(=O)CCN(c4ncccc4C(F)(F)F)CC3)c2)c2ccccc12` [Example 27, 4-(4-fluoro-3-(4-oxido-1-(3-(trifluoromethyl)pyridin-2-yl)-1,4-azaphosphinan-4-yl)benzyl)phthalazin-1(2H)-one]: 100 to 1000 nM. For the molecule `O=c1[nH]nc(Cc2ccc(F)c(P3(=O)CCN(c4ncc(F)cc4F)CC3)c2)c2ccccc12` [Example 28, 4-(4-fluoro-3-(1-(3,5-difluoropyridin-2-yl)-4-oxido-1,4-azaphosphinan-4-yl)benzyl)phthalazin-1(2H)-one], the IC50 was below 100 nM. The figure for `O=c1[nH]nc(Cc2ccc(F)c(P3(=O)CCN(c4ncc5ccccc5n4)CC3)c2)c2ccccc12` [Example 30, 4-(4-fluoro-3-(4-oxido-1-(quinazolin-2-yl)-1,4-azaphosphinan-4-yl)benzyl)phthalazin-1(2H)-one] is below 100 nM; for `O=c1[nH]nc(Cc2ccc(F)c(P3(=O)CCN(c4cccc(C(F)(F)F)n4)CC3)c2)c2ccccc12` [Example 31, 4-(4-fluoro-3-(4-oxido-1-(6-(trifluoromethyl)pyridin-2-yl)-1,4-azaphosphinan-4-yl)benzyl)phthalazin-1(2H)-one] it is 100 to 1000 nM; for `CC(=O)c1cccnc1N1CCP(=O)(c2cc(Cc3n[nH]c(=O)c4ccccc34)ccc2F)CC1` [Example 34, 4-(4-fluoro-3-(4-oxido-1-(3-(acetyl)pyridin-2-yl)-1,4-azaphosphinan-4-yl)benzyl)phthalazin-1(2H)-one] it is below 100 nM. Next, `O=c1[nH]nc(Cc2ccc(F)c(P3(=O)CCN(c4ncc(Cl)cn4)CC3)c2)c2ccccc12` [Example 36, 4-(4-fluoro-3-(4-oxido-1-(5-(chloro)pyrimidin-2-yl)-1,4-azaphosphinan-4-yl)benzyl)phthalazin-1(2H)-one]: below 100 nM; `CCCc1cnc(N2CCP(=O)(c3cc(Cc4n[nH]c(=O)c5ccccc45)ccc3F)CC2)nc1` [Example 37, 4-(4-fluoro-3-(4-oxido-1-(5-(n-propyl)pyrimidin-2-yl)-1,4-azaphosphinan-4-yl)benzyl)phthalazin-1(2H)-one]: 100 to 1000 nM.

In the case of `O=c1[nH]nc(Cc2ccc(F)c(P3(=O)CCN(C4CC4)CC3)c2)c2ccccc12` [Example 38, 4-(3-(1-cyclopropyl-4-oxido-1,4-azaphosphinan-4-yl)-4-fluorobenzyl)phthalazin-1(2H)-one], the IC50 was below 100 nM.

For `O=c1[nH]nc(Cc2ccc(F)c(P3(=O)CCN(C4CCC4)CC3)c2)c2ccccc12` [Example 39, 4-(3-(1-cyclobutyl-4-oxido-1,4-azaphosphinan-4-yl)-4-fluorobenzyl)phthalazin-1(2H)-one], the IC50 was below 100 nM.

The values above are taken from patent publication US11248013B2, “Tricyclic inhibitors of poly(ADP-ribose)polymerase” (Rakovina Therapeutics Inc., priority 2011, dated 2022).
